These results are taken from ChEMBL document CHEMBL4196215 (J Med Chem, 2018).

Series [1] is described as follows: Thermodynamic solubility of the compound by quantitative nitrogen detection assay. Type of series: physicochemical. To be noted: read-out: Therm_solubility.
A short description of series [2]: Plasma concentration in CD1 mouse at 10 mg/kg, ip measured after 0.5 hrs by LC-MS/MS analysis. Type of series: ADME, organism-based.
Series [3] is described as follows: Plasma concentration in CD1 mouse at 10 mg/kg, ip measured after 2 hrs by LC-MS/MS analysis. It is filed as ADME, organism-based.
Series [4] is described as follows: Plasma concentration in CD1 mouse at 10 mg/kg, ip measured after 4 hrs by LC-MS/MS analysis. Type of series: ADME, organism-based.
Series [5] in a line: Plasma concentration in CD1 mouse at 10 mg/kg, ip measured after 7 hrs by LC-MS/MS analysis. Type of series: ADME, organism-based.
Series [6] concerns Mus musculus. Briefly: AUC (0 to 7 hrs) in CD1 mouse at 10 mg/kg, ip measured after 7 hrs by LC-MS/MS analysis. Type of series: ADME, organism-based. The arrangement: dose 10 mg/kg, time < 7 hr, route intraperitoneal. To be noted: in vivo.
A short description of series [7]: Metabolic stability in CD1 mouse liver microsomes assessed as half life at 1 uM in presence of NADPH by LC-MS/MS analysis. It is filed as ADME, microsome. (In general: Liver microsomes are a subcellular fraction often used to study metabolism.)
The test system of series [8] is Mus musculus. Briefly: Time at which plasma concentration stays above invitro effective concentration for inhibition of ALDH1A3 in human OVCAR5 cells in CD1 mouse at 10 mg/kg, ip by LC-MS/MS analysis. Type of series: organism-based. To be noted: in vivo.
Series [9] has as its system Mus musculus. The series can be described thus: Time at which plasma concentration stays above invitro effective concentration for inhibition of ALDH1A3 in human PEO1 cells in CD1 mouse at 10 mg/kg, ip by LC-MS/MS analysis. Type of series: organism-based. To be noted: in vivo.

Values after ≈ are worked out from the molar mass of the structure shown.

With `Cc1ccccc1-n1c(SCc2cccc(F)c2)nc2c(cnn2C)c1=O`, in series [1], the solubility thermodynamic amounted to 38 µM (≈ 14.5 µg/mL).

For the compound `Cn1ncc2c(=O)n(Cc3ccccc3)c(SCc3cccc(F)c3)nc21`, the solubility thermodynamic in [1] worked out at 5 µM (≈ 1.9 µg/mL).

On to `O=c1c2cn(C3COC3)nc2nc(SCc2cccc(F)c2)n1-c1ccccc1`, for which, in [1], the solubility thermodynamic was 5 µM (≈ 2.04 µg/mL). In [2], this compound returned a concentration at 0.5 h of 7600 nM. Also, the concentration at 2 h in series [3] came out at 5200 nM. Besides, the concentration at 4 h in series [4] is 3000 nM. Besides, the concentration at 7 h in series [5] was 900 nM. In the series on Mus musculus [6], this compound returned an AUC of 27.8 µM·h.

Turning to `Cn1ncc2c(=O)n(-c3cccc(Cl)c3)c(SCc3cccc(F)c3)nc21`, the solubility thermodynamic in [1] is 55 µM (≈ 22 µg/mL).

For `Cn1ncc2c(=O)n(-c3ccccc3)c(SCc3cccc(F)c3)nc21`, the solubility thermodynamic in series [1] is below 0.7 µM.

Take `Cn1ncc2c(=O)n(CCc3ccccc3)c(SCc3cccc(F)c3)nc21`: the solubility thermodynamic in series [1] stood at 3 µM (≈ 1.18 µg/mL).

Consider `Cn1cc2c(=O)n(-c3ccccc3)c(SCc3cccc(F)c3)nc2n1`, for which the t1/2 in series [7] is recorded as 13 min. Also, the solubility thermodynamic in series [1] worked out at 69 µM (≈ 25.3 µg/mL).

Take `O=c1c2cnn(C3COC3)c2nc(SCc2cccc(F)c2)n1-c1ccccc1`: the solubility thermodynamic in series [1] amounted to 8 µM (≈ 3.27 µg/mL).

Turning to `O=c1c2cn(CC3COC3)nc2nc(SCc2cccc(F)c2)n1-c1ccccc1`, the t1/2 in [7] is reported as 27 min. Besides, the solubility thermodynamic in [1] was determined as 53 µM (≈ 22.4 µg/mL). Besides, the concentration at 0.5 h in series [2] is 5600 nM. Also, the concentration at 2 h in series [3] was 2600 nM. Also, the concentration at 4 h in [4] was 600 nM. This compound also returned a concentration at 7 h in [5] of 100 nM. The AUC in the series on Mus musculus [6] came out at 11 µM·h. Moreover, the Time with Mus musculus [8] and with Mus musculus [9] was 4 h in each case.

On to `Cc1ccccc1-n1c(SCc2cccc(F)c2)nc2[nH]ncc2c1=O`, for which the t1/2 in [7] is listed as 9 min. Besides, in series [1], the solubility thermodynamic worked out at 2 µM (≈ 0.733 µg/mL).

Broadly, the AUC is concentration integrated over time.
